System: ApoA-I mRNA
Assay: ApoA-I mRNA quantitation in HepG2 cells (real-time PCR)
Type: cell-based
Parameters: key: Active: An active compound is one that causes a >15% increase in ApoA-I mRNA at a concentration less than or equal to 100 uM
Settings: concentration less than or equal to 100 uM, fold induction relative to DMSO control
Method: At time of harvesting, the spent media was removed from the HepG2 cells and immediately placed on ice (for immediate use) or at −80° C. (for future use) in ApoA-I and albumin ELISAs. The cells remaining in the plate wells were rinsed in 200 μL PBS. PBS was carefully removed to avoid removing any loosely attached cells.
Once the PBS was removed, 85 μL cell lysis solution was added to the cells in each well and incubated for 5-10 min at room temperature, to allow for complete cell lysis and detachment. mRNA was then prepared using the “mRNA Catcher PLUS plate” from Invitrogen, according to the protocol supplied. After the last wash, as much wash buffer as possible was aspirated without allowing the wells to dry. Elution Buffer (E3, 80 μL) was then added to each well. mRNA was then eluted by incubating the mRNA Catcher PLUS plate with Elution Buffer for 5 min at 68° C. and then immediately placing the plate on ice.
The eluted mRNA was isolated and then used in a one-step real-time […]-PCR reaction, using components of the Ultra Sense Kit together with Applied Biosystems primer-probe mixes. Real-time PCR data was analyzed, using the Ct values, to determine the fold induction of each unknown sample, relative to the control (that is, relative to the control for each independent DMSO concentration).
The following compounds of Formula I were evaluated in this assay. An active compound is one that causes a >15% increase in ApoA-I mRNA at a concentration less than or equal to 100 uM.

Row | SMILES | Effect on ApoA-I mRNA levels
1 | COc1ccc(NC(=O)NCCOc2c(C)cc(-c3nc4cc(OC)cc(OC)c4c(=O)[nH]3)cc2C)cc1 [1-(2-(4-(5,7-dimethoxy-4-oxo-3,4-dihydroquinazolin-2-yl)-2,6-dimethylphenoxy)ethyl)-3-(4-methoxyphenyl)urea] | Active
2 | CNC(=O)NCCOc1c(C)cc(-c2nc3cc(OC)cc(OC)c3c(=O)[nH]2)cc1C [1-(2-(4-(5,7-dimethoxy-4-oxo-3,4-dihydroquinazolin-2-yl)-2,6-dimethylphenoxy)ethyl)-3-methylurea] | Active
3 | COc1cc(OC)c2c(=O)[nH]c(-c3cc(C)c(OCCNC(=O)Nc4ccccc4)c(C)c3)nc2c1 [1-(2-(4-(5,7-dimethoxy-4-oxo-3,4-dihydroquinazolin-2-yl)-2,6-dimethylphenoxy)ethyl)-3-phenylurea] | Active
4 | COc1cc(OC)c2c(=O)[nH]c(-c3cc(C)c(OC)c(C)c3)cc2n1 [2,4-dimethoxy-7-(4-methoxy-3,5-dimethylphenyl)-1,6-naphthyridin-5(6H)-one] | Active
5 | COc1cc(OC)c2c(=O)[nH]c(-c3ccc4c(c3)OCCO4)nc2c1 [2-(2,3-dihydrobenzo[b][1,4]dioxin-6-yl)-5,7-dimethoxyquinazolin-4(3H)-one] | Active
6 | COc1cc2nc(-c3ccc4c(c3)OCCO4)[nH]c(=O)c2cc1OC [2-(2,3-dihydrobenzo[b][1,4]dioxin-6-yl)-6,7-dimethoxyquinazolin-4(3H)-one] | Active
7 | O=c1[nH]c(-c2ccc3c(c2)OCCO3)nc2ccccc12 [2-(2,3-dihydrobenzo[b][1,4]dioxin-6-yl)quinazolin-4(3H)-one] | Active
8 | COc1cc(OC)c2c(=O)[nH]c(-c3cc(C)c(OCCN4C(=O)c5ccccc5C4=O)c(C)c3)nc2c1 [2-(2-(4-(5,7-dimethoxy-4-oxo-3,4-dihydroquinazolin-2-yl)-2,6-dimethylphenoxy)ethyl)isoindoline-1,3-dione] | Inactive
9 | COc1cc(OC)c2c(=O)[nH]c(-c3cccnc3Oc3ccc(Cl)cc3)nc2c1 [2-(2-(4-chlorophenoxy)pyridin-3-yl)-5,7-dimethoxyquinazolin-4(3H)-one] | Inactive
10 | COc1cc(OC)c2c(=O)[nH]c(-c3cc(C)nc(Cl)c3)nc2c1 [2-(2-chloro-6-methylpyridin-4-yl)-5,7-dimethoxyquinazolin-4(3H)-one] | Active
11 | COc1cc(OC)c2c(=O)[nH]c(-c3ccccc3Cl)nc2c1 [2-(2-chlorophenyl)-5,7-dimethoxyquinazolin-4(3H)-one] | Active
12 | COc1cc(OC)c2c(=O)[nH]c(-c3cc(C(C)(C)C)c(O)c(C(C)(C)C)c3)nc2c1 [2-(3,5-di-tert-butyl-4-hydroxyphenyl)-5,7-dimethoxyquinazolin-4(3H)-one] | Active
13 | COc1cc(OC)cc(-c2nc3cc(OC)cc(OC)c3c(=O)[nH]2)c1 [2-(3,5-dimethoxyphenyl)-5,7-dimethoxyquinazolin-4(3H)-one] | Active
14 | COc1cc(OC)c2c(=O)[nH]c(-c3cc(C)c(OCCN4CCCC4)c(C)c3)nc2c1 [2-(3,5-dimethyl-4-(2-(pyrrolidin-1-yl)ethoxy)phenyl)-5,7-dimethoxyquinazolin-4(3H)-one] | Active
15 | COc1cc(OC)c2c(=O)[nH]c(-c3cc(C)c(OCCN4CCOCC4)c(C)c3)nc2c1 [2-(3,5-dimethyl-4-(2-morpholinoethoxy)phenyl)-5,7-dimethoxyquinazolin-4(3H)-one] | Active
16 | Cc1cc(-c2nc3ccccc3c(=O)[nH]2)cc(C)c1OCCN1CCOCC1 [2-(3,5-dimethyl-4-(2-morpholinoethoxy)phenyl)quinazolin-4(3H)-one] | Active
17 | COc1cc(OC)c2c(=O)[nH]c(-c3cc(C)cc(C)c3)nc2c1 [2-(3,5-dimethylphenyl)-5,7-dimethoxyquinazolin-4(3H)-one] | Active
18 | COc1cc(OC)c2c(=O)[nH]c(-c3ccc(OCCO)c(Cl)c3)nc2c1 [2-(3-chloro-4-(2-hydroxyethoxy)phenyl)-5,7-dimethoxyquinazolin-4(3H)-one] | Active
19 | COc1cc(OC)c2c(=O)[nH]c(-c3ccc(O)c(Cl)c3)nc2c1 [2-(3-chloro-4-hydroxyphenyl)-5,7-dimethoxyquinazolin-4(3H)-one] | Active
20 | COc1cc(OC)c2c(=O)[nH]c(-c3cc(C)c(OCCOCc4ccccc4)c(C)c3)nc2n1 [2-(4-(2-(benzyloxy)ethoxy)-3,5-dimethylphenyl)-5,7-dimethoxypyrido[2,3-d]pyrimidin-4(3H)-one] | Inactive

Row | SMILES | Effect on ApoA-I mRNA levels
21 | COc1cc(OC)c2c(=O)[nH]c(-c3cc(C)c(OCCN)c(C)c3)nc2c1 [2-(4-(2-aminoethoxy)-3,5-dimethylphenyl)-5,7-dimethoxyquinazolin-4(3H)-one] | Active
22 | COc1cc(OC)c2c(=O)[nH]c(-c3cc(C)c(OCCO)c(C)c3)nc2n1 [2-(4-(2-hydroxyethoxy)-3,5-dimethylphenyl)-5,7-dimethoxypyrido[2,3-d]pyrimidin-4(3H)-one] | Active
23 | COc1cc(OC)c2c(=O)[nH]c(-c3cc(C)c(OCCO)c(C)c3)nc2c1 [2-(4-(2-hydroxyethoxy)-3,5-dimethylphenyl)-5,7-dimethoxyquinazolin-4(3H)-one] | Active
24 | Cc1cc(C)c2c(=O)[nH]c(-c3cc(C)c(OCCO)c(C)c3)nc2c1 [2-(4-(2-hydroxyethoxy)-3,5-dimethylphenyl)-5,7-dimethylquinazolin-4(3H)-one] | Active
25 | COc1cccc2nc(-c3cc(C)c(OCCO)c(C)c3)[nH]c(=O)c12 [2-(4-(2-hydroxyethoxy)-3,5-dimethylphenyl)-5-methoxyquinazolin-4(3H)-one] | Active
26 | COc1cc2nc(-c3cc(C)c(OCCO)c(C)c3)[nH]c(=O)c2cc1OC [2-(4-(2-hydroxyethoxy)-3,5-dimethylphenyl)-6,7-dimethoxyquinazolin-4(3H)-one] | Active
27 | COc1ccc2nc(-c3cc(C)c(OCCO)c(C)c3)[nH]c(=O)c2c1 [2-(4-(2-hydroxyethoxy)-3,5-dimethylphenyl)-6-methoxyquinazolin-4(3H)-one] | Active
28 | Cc1cc(-c2nc3ccccc3c(=O)[nH]2)cc(C)c1OCCO [2-(4-(2-hydroxyethoxy)-3,5-dimethylphenyl)quinazolin-4(3H)-one] | Active
29 | COc1cc(OC)c2c(=O)[nH]c(-c3ccc(OCCO)c(OC)c3)nc2c1 [2-(4-(2-hydroxyethoxy)-3-methoxyphenyl)-5,7-dimethoxyquinazolin-4(3H)-one] | Active
30 | COc1cc(OC)c2c(=O)[nH]c(-c3ccc(OCCO)c(C)c3)nc2c1 [2-(4-(2-hydroxyethoxy)-3-methylphenyl)-5,7-dimethoxyquinazolin-4(3H)-one] | Active
31 | NC(=O)COc1ccc(-c2nc3ccccc3c(=O)[nH]2)cc1 [2-(4-(4-oxo-3,4-dihydroquinazolin-2-yl)phenoxy)acetamide] | Active
32 | O=C(O)COc1ccc(-c2nc3ccccc3c(=O)[nH]2)cc1 [2-(4-(4-oxo-3,4-dihydroquinazolin-2-yl)phenoxy)acetic acid] | Active
33 | CNC(=O)OCCOc1c(C)cc(-c2nc3cc(OC)cc(OC)c3c(=O)[nH]2)cc1C [2-(4-(5,7-Dimethoxy-4-oxo-3,4-dihydroquinazolin-2-yl)-2,6-dimethyl-phenoxy)ethyl methylcarbamate] | Active
34 | CCCNC(=O)OCCOc1c(C)cc(-c2nc3cc(OC)cc(OC)c3c(=O)[nH]2)cc1C [2-(4-(5,7-Dimethoxy-4-oxo-3,4-dihydroquinazolin-2-yl)-2,6-dimethyl-phenoxy)ethyl propylcarbamate] | Active
35 | COc1cc(OC)c2c(=O)[nH]c(-c3cc(C)c(OCC(=O)O)c(C)c3)nc2c1 [2-(4-(5,7-dimethoxy-4-oxo-3,4-dihydroquinazolin-2-yl)-2,6-dimethylphenoxy)acetic acid] | Active
36 | COc1cc(OC)c2c(=O)[nH]c(-c3cc(C)c(OCCOC(=O)NC4CCCCC4)c(C)c3)nc2c1 [2-(4-(5,7-dimethoxy-4-oxo-3,4-dihydroquinazolin-2-yl)-2,6-dimethylphenoxy)ethyl cyclohexylcarbamate] | Active
37 | COc1cc(OC)c2c(=O)[nH]c(-c3ccc(OCC(=O)O)c(OC)c3)nc2c1 [2-(4-(5,7-dimethoxy-4-oxo-3,4-dihydroquinazolin-2-yl)-2-methoxyphenoxy)acetic acid] | Active
38 | COc1cc(OC)c2c(=O)[nH]c(-c3ccc(OCC(N)=O)cc3)nc2c1 [2-(4-(5,7-dimethoxy-4-oxo-3,4-dihydroquinazolin-2-yl)phenoxy)acetamide] | Active
39 | COc1cc(OC)c2cnc(-c3cc(C)c(OCCO)c(C)c3)nc2c1 [2-(4-(5,7-dimethoxyquinazolin-2-yl)-2,6-dimethylphenoxy)ethanol] | Active
